Test results reported in patent US10172826B2, “Composition and method to treat and alleviate symptoms of hot flashes in a subject” (U.S. NUTRACEUTICALS, LLC, priority 2015, dated 2019).

Legend:
[1] = target: T1, aromatase (Homo sapiens, UniProt P11511); settings: cited from earlier work
T1 sequence (P11511 1-503): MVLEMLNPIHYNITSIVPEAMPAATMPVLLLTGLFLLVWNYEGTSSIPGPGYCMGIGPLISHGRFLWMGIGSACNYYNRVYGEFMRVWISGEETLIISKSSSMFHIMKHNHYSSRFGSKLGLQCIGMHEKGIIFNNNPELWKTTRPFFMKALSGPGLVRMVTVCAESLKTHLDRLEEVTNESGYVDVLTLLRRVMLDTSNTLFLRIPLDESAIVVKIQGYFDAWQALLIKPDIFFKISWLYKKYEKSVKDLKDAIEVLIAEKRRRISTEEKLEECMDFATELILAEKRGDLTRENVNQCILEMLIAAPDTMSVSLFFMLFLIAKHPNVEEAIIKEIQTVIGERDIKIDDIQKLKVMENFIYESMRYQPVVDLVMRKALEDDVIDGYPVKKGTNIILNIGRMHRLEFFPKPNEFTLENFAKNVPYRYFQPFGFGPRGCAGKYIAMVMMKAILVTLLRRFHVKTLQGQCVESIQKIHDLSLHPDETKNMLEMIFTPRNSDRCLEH

[2] = major metabolite of sesamin; cited from earlier work
[3] = test system: hot flashes in female subjects experiencing symptoms of perimenopause; experiment: Clinical trial of dietary supplement formulas on frequency and severity of hot flashes; type: in vivo, women; settings: summary of the trials
Experimental: In a clinical trial explained below, 36 mg of HMR Lignan was used and in another example, 20 mg was initially used. In the same clinical trial, the carotenoid such as lycopene was used. The lycopene could be formed as a lycopene complex that includes at least one of phytoene, phytofluene, beta-carotene, tocopherols and phytosterols. In an example, 2 to 10 mg of lycopene was used and in another example, 4 to 8 mg of lycopene was used. In a clinical trial explained below, either 8 or 4 mg of lycopene was used and in an example, 0 mg in order to determine the efficacy of the lycopene relative to the HMR Lignan and other components. The composition also included 40 to 120 mg of Diindolymethane (DIM) or 30 to 140 mg of Diindolymethane, and in an example, 50 milligrams of DIM was used in one trial and 100 milligrams in another trial. About 40 to 80 mg of cranberry was used and in an example, 60 milligrams of cranberry was used as cranberry powder, which gave the coloring and other benefits. Cranberry is used to help relieve adverse urinary symptoms and aid and treat urinary tract infections. Other carotenoids that may possibly be used include at least one of astaxanthin, zeaxanthin, lutein, and xanthophylis.
A study was conducted to evaluate the effectiveness of a dietary supplement formulation on the reduction and severity of hot flashes in women. […]

[4] = cited from earlier work
[5] = test system: endometrial, breast and lung cancer cell lines; settings: compared with alpha or beta-carotene; cited from earlier work
[6] = test system: estrogen sensitive human breast and endometrial cancer cells; settings: cell cycle progression in G0/G1 phase; cited from earlier work

## O=C1OC[C@H](Cc2cccc(O)c2)[C@H]1Cc1cccc(O)c1 [Enterolactone, enterolactone]
[1]
  Aromatase activity: inhibit aromatase activity
[2]
  Elimination half life: less than 6 hours

## CC(C)=CCC/C(C)=C/C=C/C(C)=C/C=C/C(C)=C/C=C/C=C(C)/C=C/C=C(C)/C=C/C=C(\C)CCC=C(C)C [Lycopene]
[3]
  Conclusion on control of hot flashes: work alone to control hot flashes
[4]
  Solubility in water: insoluble
[5]
  Inhibition of proliferation, relative potency: more potent that alpha or beta-carotene
[6]
  Inhibition of IGF-1 induced proliferation: inhibit
